From ChEMBL document CHEMBL6078691, “Modulating Phosphorylation by Proximity-Inducing Modalities for Cancer Therapy” (J Med Chem, 2024) come the findings set out here.

What is called IC50 is the point on the concentration scale where inhibition reaches its midpoint. Low values mean inhibition by little substance, high ones a need for much substance. Usually inhibition stands for the change of the read-out against control, counted positive when it falls.

Some results are limits rather than exact numbers.

The target of assay [1] is T1, Epidermal growth factor receptor (Homo sapiens, UniProt P00533). In words: Inhibition of EGFR (unknown origin).
The target in assay [2] is T1, Epidermal growth factor receptor. Kind of assay: Inhibition of EGFR (unknown origin) at 0.5 uM relative to control.
In assay [3] the target is Microtubule-associated protein tau (Homo sapiens, UniProt P10636). In words: Inhibition of tau phosphorylation (unknown origin).
Chain of Microtubule-associated protein tau (P10636 whole entry): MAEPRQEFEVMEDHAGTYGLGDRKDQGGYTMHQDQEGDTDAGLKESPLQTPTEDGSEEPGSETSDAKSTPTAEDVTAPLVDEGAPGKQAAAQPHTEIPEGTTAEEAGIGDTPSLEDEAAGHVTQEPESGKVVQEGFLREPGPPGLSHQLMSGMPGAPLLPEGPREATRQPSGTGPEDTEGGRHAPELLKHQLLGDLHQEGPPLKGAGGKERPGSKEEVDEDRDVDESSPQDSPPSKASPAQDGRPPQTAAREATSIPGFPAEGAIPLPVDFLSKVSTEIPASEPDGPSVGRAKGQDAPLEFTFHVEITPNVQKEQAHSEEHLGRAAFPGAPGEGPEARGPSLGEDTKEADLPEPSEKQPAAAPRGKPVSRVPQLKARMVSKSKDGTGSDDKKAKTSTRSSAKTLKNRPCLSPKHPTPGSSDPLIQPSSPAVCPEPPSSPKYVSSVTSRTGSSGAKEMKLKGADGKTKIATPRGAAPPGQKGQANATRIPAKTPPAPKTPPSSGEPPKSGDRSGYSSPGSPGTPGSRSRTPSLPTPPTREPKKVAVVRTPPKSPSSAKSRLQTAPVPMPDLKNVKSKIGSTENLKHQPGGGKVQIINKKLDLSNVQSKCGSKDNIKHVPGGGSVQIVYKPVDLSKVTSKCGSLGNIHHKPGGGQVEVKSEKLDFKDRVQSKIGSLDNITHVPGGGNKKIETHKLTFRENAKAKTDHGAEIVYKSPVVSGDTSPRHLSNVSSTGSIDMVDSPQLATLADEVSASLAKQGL

T1 sequence (P00533 whole entry): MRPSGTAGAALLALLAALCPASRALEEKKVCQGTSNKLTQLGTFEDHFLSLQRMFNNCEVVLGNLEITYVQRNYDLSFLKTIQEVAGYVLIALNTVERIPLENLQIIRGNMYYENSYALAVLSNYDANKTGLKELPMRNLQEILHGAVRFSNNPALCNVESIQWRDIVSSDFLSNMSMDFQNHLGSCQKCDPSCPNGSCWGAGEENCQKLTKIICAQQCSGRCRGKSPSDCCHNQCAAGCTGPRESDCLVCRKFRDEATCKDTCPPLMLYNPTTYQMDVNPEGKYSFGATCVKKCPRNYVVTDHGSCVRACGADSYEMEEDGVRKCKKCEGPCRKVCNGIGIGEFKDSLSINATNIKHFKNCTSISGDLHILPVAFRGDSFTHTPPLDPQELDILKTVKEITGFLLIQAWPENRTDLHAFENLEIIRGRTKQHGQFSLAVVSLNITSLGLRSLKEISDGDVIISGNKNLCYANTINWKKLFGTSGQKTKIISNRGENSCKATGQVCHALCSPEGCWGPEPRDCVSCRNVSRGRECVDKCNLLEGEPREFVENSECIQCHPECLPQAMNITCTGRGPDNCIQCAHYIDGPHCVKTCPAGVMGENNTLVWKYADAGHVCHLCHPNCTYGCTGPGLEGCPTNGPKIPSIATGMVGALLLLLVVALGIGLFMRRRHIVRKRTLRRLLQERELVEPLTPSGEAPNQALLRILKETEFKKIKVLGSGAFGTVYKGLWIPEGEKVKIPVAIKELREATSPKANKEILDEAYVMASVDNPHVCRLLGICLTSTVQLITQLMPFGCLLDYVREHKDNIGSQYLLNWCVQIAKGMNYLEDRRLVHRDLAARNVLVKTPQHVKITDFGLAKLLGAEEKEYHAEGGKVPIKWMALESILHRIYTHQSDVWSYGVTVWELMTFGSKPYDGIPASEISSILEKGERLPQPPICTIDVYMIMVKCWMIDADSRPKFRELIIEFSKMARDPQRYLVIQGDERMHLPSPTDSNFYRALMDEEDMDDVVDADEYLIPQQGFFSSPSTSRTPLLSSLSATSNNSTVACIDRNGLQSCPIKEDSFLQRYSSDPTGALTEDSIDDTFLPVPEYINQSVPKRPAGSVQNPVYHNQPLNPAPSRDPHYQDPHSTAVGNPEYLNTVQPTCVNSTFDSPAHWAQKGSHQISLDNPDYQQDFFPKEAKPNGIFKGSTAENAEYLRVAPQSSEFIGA

In turn, `CC[C@H](C(=O)N1CCCC[C@@H]1C(=O)O[C@H](CCc1ccc(OC)c(OC)c1)c1cccc(OCC(=O)NCCC(=O)N2CCN(CCCOc3cc4c(Nc5ccc(F)c(Cl)c5)ncnc4cc3OC)CC2)c1)c1cc(OC)c(OC)c(OC)c1` returned an IC50 in assay [1] of 13 nM.

In assay [2], `CC[C@H](C(=O)N1CCCC[C@@H]1C(=O)O[C@H](CCc1ccc(OC)c(OC)c1)c1cccc(OCC(=O)NCCOCCOCCN(C)C/C=C/C(=O)Nc2cc3c(Nc4ccc(F)c(Cl)c4)ncnc3cc2OC)c1)c1cc(OC)c(OC)c(OC)c1` returned an inhibition of 90%.

“H-YQQYQDATADEQGGSGSKKVAVVRTPPKSPRRRRRRRR-OH” displayed an IC50 in assay [3] greater than 20000 nM.

As for `CC[C@H](C)[C@H](NC(=O)[C@H](CCSC)NC(=O)[C@H](Cc1c[nH]c2ccccc12)NC(=O)[C@@H](NC(=O)[C@@H](N)CC(=O)O)C(C)C)C(=O)N[C@@H](CC(N)=O)C(=O)N[C@@H](CCCCN)C(=O)N[C@@H](CCCCN)C(=O)N[C@@H](CCCNC(=N)N)C(=O)N[C@@H](CCCCN)C(=O)NCCOCCOCCOCCOCCOCCOCCN[C@@H](CCCNC(=N)N)C(=O)N[C@H](C(=O)N1CCC[C@H]1C(=O)N1CCC[C@H]1C(=O)N[C@@H](CCCCN)C(=O)N[C@@H](CO)C(=O)N1CCC[C@H]1C(=O)N[C@@H](CCCNC(=N)N)C(=O)N[C@@H](CCCNC(=N)N)C(=O)N[C@@H](CCCNC(=N)N)C(=O)N[C@@H](CCCNC(=N)N)C(=O)N[C@@H](CCCNC(=N)N)C(=O)N[C@@H](CCCNC(=N)N)C(=O)N[C@@H](CCCNC(=N)N)C(=O)N[C@@H](CCCNC(=N)N)C(=O)O)[C@@H](C)O`, the IC50 in assay [3] came out at 2000 nM.
